Data as given in US4537879A, “A47934 Antibiotic and process for production thereof” (Eli Lilly and Company, priority 1984, dated 1985).

Assay: Test 3: growth promotion in weanling pigs
Type: in vivo
Conditions: 110 ppm in diet, 28 days
Experimental: Antibiotic A47934 was tested at levels of 10 and 50 ppm. in the diet of pigs initially weighing an average of about 23 pounds, compared with […]) administered in the diet at 110 ppm. The experiment was conducted in an environmentally controlled nursery facility with wire mesh floors in the pens. There were four replicates per treatment and four pigs per replicate for the 28-day experiment. There were six replicates of four pigs per replicate in the control group, which group received the unmedicated diet. The pigs were fed ad libitum on an 18 percent protein corn-soy ration having the following composition: At the end of the trial, the average weight of the individual pig had increased to 53 pounds.

CC[C@H]1OC(=O)C[C@@H](O)[C@H](C)[C@@H](O[C@@H]2O[C@H](C)[C@@H](O[C@H]3C[C@@](C)(O)[C@@H](O)[C@H](C)O3)[C@H](N(C)C)[C@H]2O)[C@@H](CC=O)C[C@@H](C)C(=O)/C=C/C(C)=C/[C@@H]1CO[C@@H]1O[C@H](C)[C@@H](O)[C@@H](OC)[C@H]1OC [Tylan, tylosin, reference compound]
ADF % Im-crease: 2.6%
ADF (average daily feed consumption): 1.94 lbs.
ADG % Im-crease: 4.1%
ADG (average daily gain): 1.01 lbs.
F/G % Improvement: 2.5%
F/G (ratio of feed consumption to gain): 1.92
